Laboratory results reported in US9682931B2, “Aryloyl(oxy or amino)pentafluorosulfanylbenzene compound, pharmaceutically acceptable salt thereof, and prodrugs thereof” (UBE INDUSTRIES, LTD., priority 2013, dated 2017).
≈ marks a conversion by molar mass, not a printed value.

How the values were obtained:
[1] = system: Trichophyton mentagrophytes NBRC5466 (trichophyton); assay: Antifungal test, minimum inhibitory concentration (MIC), trichophyton; type: cell-based; conditions: NBRC5466, 168 h, 27±2° C., 7 days
Procedure: Antimicrobial/Antifungal Test
Measurement of the Minimum Inhibitory Concentration (MIC) of a Test Substance
The minimum inhibitory concentration (MIC) of test substances (Compound 3, Compound 7) on a microorganism was measured.
1) Test Microbe (a) Staphylococcus aureus MRSAIID 1677 (methicillin-resistant staphylococcus aureus; MRSA) (b) Trichophyton mentagrophytes NBRC5466 (trichophyton)
2) Preparation of Microbe Solution for Inoculation
Test microbe (b): A strain cryopreserved was applied on PDA medium and cultured at 27±2° C. for 7 days. Spores were scraped out and suspended in a test microbe preparation solution, filtered with absorbent cotton. The solution was prepared so as to have a number of spores of about 10^6 CFU/mL. The test microbe solution prepared was serially diluted by 10-fold and cultured at 27±2° C. for 7 days and then the microbe cells were counted.
3) Serial Dilution of Test Substance
Two-fold serial dilutions of a test substance were prepared in the following procedure. To a test substance (1 mg), a medium (5 mL) for measuring the sensitivity of each microbe strains was added to obtain a stock solution of 200 μg/mL. […]
A test microbe solution (5 μL) was added dropwise to individual wells of the microplate. […] After culture, whether the microbe proliferated or not was determined by the naked eye. […]

Topoisomerase II = molecular target: T1, Topoisomerase II (Homo sapiens, UniProt P11388); assay: Topoisomerase II assay; type: biochemical; design: key to Inhibitory activity Topoisomerase II: ∘: Inhibitory activity is present; Δ: Weak inhibitory activity is present; x: No inhibitory activity is present
T1 construct: purchased
T1 sequence (P11388 whole entry): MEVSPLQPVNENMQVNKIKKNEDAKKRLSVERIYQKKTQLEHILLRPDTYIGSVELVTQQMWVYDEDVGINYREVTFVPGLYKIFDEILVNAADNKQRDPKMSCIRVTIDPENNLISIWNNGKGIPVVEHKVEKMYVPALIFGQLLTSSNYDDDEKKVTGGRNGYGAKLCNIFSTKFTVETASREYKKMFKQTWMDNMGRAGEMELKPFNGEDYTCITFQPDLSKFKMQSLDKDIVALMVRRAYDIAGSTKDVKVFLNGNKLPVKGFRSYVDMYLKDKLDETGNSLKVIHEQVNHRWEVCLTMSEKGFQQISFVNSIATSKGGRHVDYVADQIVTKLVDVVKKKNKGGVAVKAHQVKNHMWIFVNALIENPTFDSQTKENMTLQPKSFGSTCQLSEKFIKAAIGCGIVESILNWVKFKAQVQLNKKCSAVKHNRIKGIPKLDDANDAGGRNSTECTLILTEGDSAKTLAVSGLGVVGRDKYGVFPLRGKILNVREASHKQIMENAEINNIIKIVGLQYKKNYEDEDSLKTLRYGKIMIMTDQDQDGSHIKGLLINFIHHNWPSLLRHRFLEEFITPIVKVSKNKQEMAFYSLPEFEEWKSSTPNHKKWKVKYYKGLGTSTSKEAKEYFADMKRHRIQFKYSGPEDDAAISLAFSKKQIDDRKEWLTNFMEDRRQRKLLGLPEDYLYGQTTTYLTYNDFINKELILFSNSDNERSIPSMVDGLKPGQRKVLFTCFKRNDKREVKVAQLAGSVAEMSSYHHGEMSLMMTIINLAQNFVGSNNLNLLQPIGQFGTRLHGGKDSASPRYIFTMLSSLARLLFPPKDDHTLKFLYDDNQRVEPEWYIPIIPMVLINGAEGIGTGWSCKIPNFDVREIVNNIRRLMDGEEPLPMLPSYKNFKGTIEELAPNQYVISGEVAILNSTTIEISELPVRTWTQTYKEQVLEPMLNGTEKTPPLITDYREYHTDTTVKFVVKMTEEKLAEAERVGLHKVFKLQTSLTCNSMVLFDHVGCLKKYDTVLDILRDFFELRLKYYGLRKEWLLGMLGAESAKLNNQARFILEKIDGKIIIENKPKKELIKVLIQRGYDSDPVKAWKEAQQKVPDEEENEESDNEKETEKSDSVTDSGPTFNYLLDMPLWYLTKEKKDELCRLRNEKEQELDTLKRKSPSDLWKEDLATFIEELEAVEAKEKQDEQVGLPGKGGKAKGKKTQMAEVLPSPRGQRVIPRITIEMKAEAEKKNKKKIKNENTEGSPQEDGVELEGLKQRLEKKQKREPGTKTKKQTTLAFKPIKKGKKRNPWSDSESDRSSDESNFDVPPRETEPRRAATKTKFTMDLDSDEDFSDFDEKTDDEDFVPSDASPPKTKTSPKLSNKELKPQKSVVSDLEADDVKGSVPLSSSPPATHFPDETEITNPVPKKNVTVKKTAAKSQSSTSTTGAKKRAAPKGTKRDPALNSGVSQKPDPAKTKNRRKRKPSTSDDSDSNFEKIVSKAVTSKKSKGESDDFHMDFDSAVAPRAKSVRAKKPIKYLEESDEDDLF
Procedure: The inhibitory action of a test substance (Compound 3) on Topoisomerase I and Topoisomerase II was examined.
2. Topoisomerase II Assay
Assay was performed in accordance with the attachment to Topoisomerase II Assay Kit, as follows.
(1) 10×Topo II Incomplete Assay A and 10×ATP Buffer B were mixed in equal amounts to prepare 5× Complete Assay Buffer (prepared when used).
(2) Assay solution was prepared in accordance with the following table.
(3) Incubated at 37° C. for 30 minutes (4) 5 μl of 5× Stop Buffer/gel loading dye was added (5) 1 μl of 1.3 mg/mL protease K solution (prepared with distilled water) was added (final concentration of protease K is 50 μg/mL) (6) Incubated at 37° C. for 20 minute (7) Total amount was applied to 1% agarose gel (containing EtBr) and analyzed by electrophoresis using a single concentration TAE buffer (prepared with distilled water). (8) After electrophoresis, the 1% agarose gel was stained with 0.5 μg/mL EtBr solution (prepared with single concentration TAE buffer) (9) Irradiated with UV ray and photographed.

[2] = system: HL60 (myelocytic leukemia); assay: Evaluation of anticancer action, cell proliferation inhibition (WST-8), HL60; type: cell-based; conditions: Homo sapiens, HL-60, HL60, about 96 hours
Description: The cell proliferation inhibitory effects of a test substance (Compound 3) on various types of cancer cells were examined.
1. Measuring Reagent and Analysis Software
WST-8 Kit (Cat. No. 260-96165 or 260-96162; manufactured by Kishida Chemical Co., Ltd.) for counting cell number
Software for graph making and measurement of GI50 value: XLfit 5.2 (ID Business Solutions Ltd.)
2. Cells and Culture Conditions
Five types of cells and medium (the following Table) were used. The cells were obtained from the Research Resource Bank of the Human Sciences Foundation.
On the day when a sample was to be added, the sample was weighed and a medium for each type of cells was added so as to be 500 μg/mL. Sonication was performed while warming at 37° C. for 60 minutes to be dissolved. Then, filtration was performed by a 0.22 m-filter. The 500 μg/mL-solution was diluted with the medium for each type of cells to prepare 200 μg/mL, 60 μg/mL, 20 μg/mL, 6 μg/mL, 2 μg/mL, 0.6 μg/mL and 0.2 μg/mL solutions, which were specified as two-fold concentration test solutions (the final concentrations of the test substance were 250 µg/mL, 100 μg/mL, 30 μg/mL, 10 μg/mL, 3 μg/mL, 1 μg/mL, 0.3 μg/mL, […], respectively). […]
(8) Absorbance values at 450 nm and 650 nm were measured to calculate O.D. 450 and O.D. 650. […]
ODdrug-exposed wells: absorbance of a well containing a sample […]

Row | Compound | MIC [1] [µg/mL] | Topoisomerase II inhibitory activity (Topoisomerase II; 5, 50 and 500 μg/mL) | Inhibitory activity Topoisomerase II (Topoisomerase II; final concentration 0.5 μg/mL) | Inhibitory activity Topoisomerase II (Topoisomerase II; final concentration 5 μg/mL) | Inhibitory activity Topoisomerase II (Topoisomerase II; final concentration 50 μg/mL) | Inhibitory activity Topoisomerase II (Topoisomerase II; final concentration 500 μg/mL) | GI50 [2] [µg/mL]
1 | O=C(Oc1ccc(S(F)(F)(F)(F)F)cc1)c1cc(O)c(O)c(O)c1 [Compound 7, 4-(3,4,5-trihydroxybenzoyloxy)pentafluorosulfanylbenzene] | 6.3 (≈ 16.9 µM) |  |  |  |  |  | 
2 | O=C(Nc1ccc(S(F)(F)(F)(F)F)cc1)c1cc(O)c(O)c(O)c1 [Compound 3, 4-(3,4,5-trihydroxybenzoylamino)pentafluorosulfanylbenzene] |  | inhibitory activity was observed | x | ∘ | ∘ | ∘ | 1.7 (≈ 4.58 µM)
